Patent US20250144128A1, “CANCER TREATMENT” (Nucana plc, priority 2022, published 2025)

Experiments:
[1] = test system: A375 melanoma or A549 lung cancer cell lines; test: mRNA decrease in the cell line studies (RT-qPCR), cell line not specified; assay type: cell-based; conditions: NUC-7738 10 uM vs DMSO
Description: (§1) A375 melanoma cell lines and A549 lung cancer cell lines were treated with solvent-control DMSO or NUC-7738 (10 uM) for 72 hours, after which media supernatants were collected for either soluble PD-L1 analysis or EV isolation. In addition, adherent cells were collected for RNA and protein isolation.
To determine RNA expression of soluble transcript, cells were lysed and RNA isolated using the RNAeasy Kit (Qiagen, Cat #74136). This was then followed by RNA reverse transcription into cDNA using QuantiNova Reverse Transcription Kit (Qiagen, Cat #205413). Primers for each gene were designed using PrimerQuest™ (Integrated DNA Technologies) and ordered at 100 uM concentrations from IDT. The soluble PD-L1 transcript primer was designed to create an amplicon of about 100 bp size crossing the exon 4 and intron 4 junction.
RT-qPCR was carried out using the qPCRBIO SyGreen MasterMix kit (PCRBiossystems Cat #PB20.14-50) and the Rotor qene Q qPCR machine (Qiagen). Ct values were analysed using the Rotor qene Q Software. Fold change were calculated using the AACt values.

[2] = test system: sPD-L1, A375 melanoma or A549 lung cancer cell lines; test: sPD-L1 in media supernatant in the cell line studies (sandwich ELISA), cell line not specified; assay type: cell-based; conditions: NUC-7738 10 uM vs DMSO
Description: For sPDL1 analysis, a similar process was undertaken. Cells were grown in Corning® 100 mm TC-treated Culture Dish with DMEM, high glucose, GlutaMAX™ Supplement (ThermoFisher Cat #10566016) supplemented with 10% FBS and 1% Penicillin-Streptomycin (ThermoFisher Cat #15070063), with approximately 2×10^6 cells.
as §1
Patient plasma samples were centrifuged at 3000×g for 15 minutes to remove cellular debris. […]
For quantitative measurement of soluble PD-L1 in patient and in-vitro samples Quantikine® ELISA Human/Cynomolgus Monkey PD-L1/B7-H1 Immunoassay (R&D Systems Cat. #DB7H10) was used as per manufacturers recommendation. […]
In brief, the protocol included the preparation of the standard curve from the Human/Cynomolgus Monkey PD-L1/B7-H1 protein standard ranging from […]. […] The wells were read using a microplate reader set to 450 nm and 540 nm for wavelength correction to determine the optical density.
Analysis of the results included subtracting the 540 nm readings from 450 nm reading and subtracting blank, diluent only, sample readings. […]

[3] = test system: exosomal PD-L1; test: exosomal PD-L1 in plasma of patients treated with NUC-7738 (capillary-based immune probing, PD-L1/CD81); assay type: in vivo, human; conditions: plasma exosomes; for PD-L1/CD81 values: 24 h Post C1
Description: Patients were treated with NUC-7738 on days 1 and 8 of a 14-day cycle. Patient plasma samples were collected pre-dose, 24 hr after NUC-7738 dosage and the 24 hours post Cycle 2 (that is the second occasion at which patients received treatment).
Patient plasma samples were centrifuged at 3000×g for 15 minutes to remove cellular debris. Then, the supernatant was aliquoted in 250 μL measures and stored in−80° C. freezers. For exosomal isolation ExoQuick® ULTRA EV Isolation Kit for Serum and Plasma (System Biosciences Cat #EQULTRA-20A-1) according to manufacturer's protocol. In brief, 250 μL of plasma samples free of cellular debris was used and 67 μL ExoQuick Solution was added, followed by a 30 minute incubation period at 4° C. After that, the plasma sample and ExoQuick Solution mixture were centrifuged at 3000×g for 10 minutes. Then, carefully without disturbing the pellet, all of the supernatant was aspirated off, making sure no residual traces remained. Next, the pellet was resuspended in Buffer B provided, followed by the addition of Buffer A. The samples was homogenised in the buffer by carefully pipetting up and down until no clumps of the pellet were seen. The resin purification columns were conditioned by removing the storage buffer and washing it with Buffer B. The samples were added to the conditioned purification column and centrifuged at 1000×g for 30 seconds. The eluted samples were quantified for protein concentration using Qubit™ Protein and Protein Broad Range (BR) Assay Kits (Thermofisher Cat #A50668). Samples were then aliquoted according to the required amounts for the downstream applications and stored −80° C.
Analysis of PD-L1 expression in exosomes isolated from plasma samples was carried out using automated western blotting JESS system (BioTechne, ProteinSimples). The 12-230 kDa Separation Module of 25 capillaries kit (ProteinSimple, Cat #SM-W004) was used per manufacture protocol. Briefly, samples were prepared at the appropriate concentration using the kit master-mix and sample dilution buffer containing DT, samples were then denatured for 5 minutes at 95° C. All samples, primary antibodies and secondary antibodies were loaded into the plate provided. Anti-CD81 antibody [M38] (Abcam, Cat #ab79559) diluted at 1:100 and PD-L1 (E1L3N®) XP® Rabbit mAb (Cell Signalling, Cat #13684) diluted at 1:50 were used. Secondary antibodies used were from the anti-mouse chemiluminescence (ProteinSimple, Cat #DM002) and anti-rabbit near-infrared (NIR) (ProteinSimple, Cat #DM007) detection module, they were used at recommended dilution. The prepared plates and capillaries were then loaded onto the JESS, and sample run at the defaults settings. The expression was determined by the area under the curve using Compass Software v 6.1 (ProteinSimple).

[4] = test system: exosomal PD-L1; test: as above; assay type: in vivo, human; conditions: for PD-L1/CD81 values: plasma exosomes, Pre C2 (15 days after initial cycle)
[5] = test system: ExoPD-L1, A375 melanoma or A549 lung cancer cell lines; test: ExoPD-L1 protein in exosomes from the cell line studies; assay type: cell-based; conditions: NUC-7738 10 uM vs DMSO
Description: For Extracellular Vesicle (EV, exosome) preparation, cells were cultured in T175 Nunc™ EasYFlask™ Cell Culture Flasks (ThermoFisher Cat #159910), approximately 50×10^6 cells. Cells were grown in DMEM, high glucose, GlutaMAX™ Supplement (ThermoFisher Cat #10566016) supplemented with 5% exosome free FBS and 1% Penicillin-Streptomycin (ThermoFisher Cat #15070063).
as §1
Isolation of exosomes from in-vitro samples involved growing cells in 5 separate T175 Nunc™ EasYFlask™ Cell Culture Flasks (ThermoFisher Cat #159910) which approximated to 50×10^6 cells. Cells were grown in DMEM, high glucose, GlutaMAX™ Supplement (ThermoFisher Cat #10566016) in addition, this was supplemented with exosome free FBS. […]
Analysis of PD-L1 expression in exosomes isolated from plasma samples was carried out using automated western blotting JESS system (BioTechne, ProteinSimples). […] The expression was determined by the area under the curve using Compass Software v 6.1 (ProteinSimple).

[6] = test system: adenosine deaminase (ADA); conditions: inactive metabolite 3′-deoxyinosine; Tsai et al. 2010; cited from earlier work
[7] = patient 001-002, Pre C1 (untreated) 0.044
[8] = patient 001-019, Pre C1 (untreated) 0.039
[9] = patient 002-002, Pre C1 (untreated) 0.035
[10] = patient 003-008, Pre C1 (untreated) 0.045

Row | Structure (SMILES) | decrease of mRNA [1] | time dependent decrease of sPD-L1 expression in the media supernatant [2] | PD-L1/CD81 values [3, 7] | time within which the reduction of the PD-L1/CD81 ratio is seen ([3]; patient 001-019) | PD-L1/CD81 values [3, 8] | PD-L1/CD81 values [3, 9] | PD-L1/CD81 values [3, 10] | PD-L1/CD81 values [4, 7] | PD-L1/CD81 values [4, 8] | PD-L1/CD81 values [4, 9] | PD-L1/CD81 values [4, 10] | reductions in Exo-PD-L1 compared to pre-treatment levels ([4]; preliminary studies, serum from 4 patients treated with NUC-7738) | reduction of ExoPD-L1 protein [5] | metabolism after administration, in vivo [6]
1 | C[C@H](NP(=O)(OC[C@@H]1CC(O)[C@H](n2cnc3c(N)ncnc32)O1)Oc1ccccc1)C(=O)OCc1ccccc1 (stereo partly drawn) [NUC-7738, 3′-deoxyadenosine-5′-O-[phenyl(benzyloxy-L-alaninyl)] phosphate] | up to 40% | up to 3 fold | 0.047 | ≤ 24 h | 0.02 | 0.043 | 0.041 | 0.025 | 0.049 | 0.023 | 0.029 | ≤ 50% | 50% | –
2 | Nc1ncnc2c1ncn2[C@@H]1O[C@H](CO)C[C@H]1O [3′-dA, 3′-deoxyadenosine] | – | – | – | – | – | – | – | – | – | – | – | – | – | quickly deaminated by adenosine deaminase (ADA), and rapidly metabolized to an inactive metabolite
